The values that follow come from US6642003B2, “Human glucose-dependent insulin-secreting cell line” (Cedars-Sinai Medical Center, priority 2001, dated 2003).

The test system of one experiment is ARIP cells. The experiment is described as follows: RT-PCR of islet β-cell specific transcripts, ARIP cells. The settings on record: Exendin-9 100 nM for 72 h. The experiment is classed as cell-based, rat. How it is done: (§1) After the treatment of ARIP and PANC-1 cells with GLP-1, Exendin-9, or vehicle, for the described length of time and the various doses, the culture medium was removed and the cells were washed (twice) with serum-free medium. Total RNA was isolated using the TRiazol-method (Gibco-BRL), and treated with DNase (Amplification Grade, GibcoBRL) in 20 mmol/l Tris-HCL (pH 8.4), 2 mmol/l MgCl2, and 50 mmol/l KCl to remove any traces of contaminating genomic DNA. RNA (2.5 μg) was then subjected to reverse transcription (RT reagents; Promega; Madison, Wis.). RT-PCR was undertaken in a volume of 50 μl of buffer containing 50 mmol/l KCl, 10 mmol/l Tris-HCl, 3.5 mmol/l MgCl2, 200 μmol/l each dNTPs, and 0.4 μmol/l each of sense and antisense primers to rat or human insulin (depending on the specific cell from which the RNA was extracted). Amplification was performed for 30 cycles at the denaturing temperature of 94° C. for 1 min, annealing temperature of 60° C. for 45 sec, and an extension temperature of 72° C. for 1 min. […] These included more irregular and variable cell shapes, with a cytoplasm less homogenous and “rougher” in appearance than control culture.
(§2) Treatment with GLP-1 induces the differentiation of ductal epithelial cells into insulin-producing cells. FIG. 2 illustrates a series of cell cultures grown with or without GLP-1 (10 nM) for 72 h. […] Preabsorption of the antibody with an excess of human recombinant insulin prevented the staining of insulin-positive GLP-1 treated cells (data not shown). While treatment with GLP-1 turned the majority of ARIP cells into […] For β-actin, the annealing temperature was raised to 64° C. for 1 min and gene-specific primers were used. For GLP-1-receptor (GLP-R) the annealing temperature used was 55° C. All other experimental conditions to amplify GLUT2, glucokinase, and GLP-R mRNAs were identical to those described for the amplification of insulin mRNA. RT and PCR conditions for human transcripts were identical to those described for rat mRNAs.
(§3) Southern blotting with species-specific full length cDNA probes for insulin, GLUT-2, glucokinase, GLP-1 receptor and β-actin was performed as previously described. Y. Wang, R. Perfetti, N. H. Greig, H. W. Holloway, K. A. DeOre, C. Montrose-Rafizadeh, D. Elahi, J. M. Egan, “Glucagon-like peptide-1 can reverse the age-related decline in glucose tolerance in rats.” J Clin Invest 99:2883-2889, 1997.

Another experiment relates to PANC-1/IDX-1 cells. The experiment is described as follows: RT-PCR of islet β-cell specific transcripts, PANC-1/IDX-1 cells. The experiment is classed as cell-based, human. Particulars: Exendin-9 100 nM for 72 h. How it is done: PANC-1 cells were transfected with a pcDNA3 construct (Invitrogen; Carlsbad, Calif.) harboring the wild-type full-length IDX-1 cDNA using LipoTAXI (Catalog N. 204110; Mammalian Transfection Kit, Stratagene; La Jolla, Calif.). Control cells were transfected with the vector alone. The selection of positive (i.e. transfected) cells was carried out by culturing the cells in the presence of 400 μg/ml of G418 sulfate (GN-04, Omega; Tarzana, Calif.).
as §1, §2, §3

Another experiment has as its system diabetic rats. The settings on record: adult animals after subtotal pancreatectomy; cited from earlier work.

On to “Exendin-9: the peptide receptor antagonist of GLP-1”, for which the “effect on expression of β-cell-specific genes” value with ARIP cells was “inhibited the expression of GLUT-2, insulin and glucokinase”; with PANC-1/IDX-1 cells, “inhibited the expression of GLUT-2, insulin and glucokinase”.
As to “exendin4: an analog of the incretin hormone glucagon-like-peptide-1”, the “effect on islet mass” value in the experiment with diabetic rats is “increase islet mass”.
